# In patent US20250019350A1, “SYNTHESIS OF THE PROSTATE SPECIFIC MEMBRANE ANTIGEN (PSMA) RADIOLABELED INHIBITOR [18F]DCFPYL” (Progenics Pharmaceuticals, Inc, priority 2023, published 2025):
# Assay: HPLC/UV (264 nm) chemical impurity assay; ascorbic acid related impurity
# Type: physicochemical
# Details: development lot at 163.0 mCi/mL with ascorbic acid
# Protocol: Analytical HPLC method was used. The method employs UV detection at 264 nm for chemical impurities, and an Eckert & Ziegler model B-FC-1000 gamma detector for radiochemical assays.
# Since the peak has not been previously observed in preparations in the absence of ascorbic acid it is likely ascorbic acid related and was further investigated. A decayed sample from the lot produced was analyzed further and confirmed the presence of the peak, FIG. 35. […] The sample was assayed for chemical impurities at T=0, 4, 10 and 24 hours when held inverted at ambient conditions. […] The impurity only formed with radioactivity exposure but not when stored in light or dark at ambient conditions (see FIG. 37).
smiles,measurement,value
"O=C(O)CC[C@H](NC(=O)N[C@@H](CCCCNC(=O)c1ccc([18F])nc1)C(=O)O)C(=O)O [Lot 18F-DCFPyL, 2-(3-{1-carboxy-5-[(6-[18F]fluoro-pyridine-3-carbonyl)-amino]-pentyl}ureido)-pentanedioic acid]",chemical impurity at retention time approximately 4.6 minutes on the UV trace,0.9 µg/mL
